US10047091B2, “Ionic liquid, lubricating agent, and magnetic recording medium” (Dexerials Corporation, priority 2012, dated 2018)
Read-outs that look alike come from different tables or passages of the source.

Key:
[1] = acid dissociation constant (pKa) in water
Text: As used herein, pKa refers to an acid dissociation constant, i.e., an acid dissociation constant in water or an acid dissociation constant in acetonitrile.
The acid dissociation constant in water can be measured, for example, with reference to the method described in J. Chem. Res., Synop. […] Specifically, it can be measured by a combination of a spectrometer with potentiometry.

TG/DTA thermal analysis = type: physicochemical; details: for 10% weight loss temperature: TG; for 10% weight loss temperature / Exothermic peak temperature in DTA measurement: air, 30° C. to 600° C., heating rate 10° C./min; for nature of the weight loss in TG/DTA: exothermic suggests decomposition reaction
Method: The measurement is performed in a temperature range of 30° C. to 600° C. at a heating rate of 10° C./min while introducing air at a flow rate of 200 mL/min using EXSTAR 6000 (manufactured by Seiko Instruments Inc.). As a gas chromatography mass spectrometer, 6890/5975 MSD (manufactured by Agilent Technologies, Inc.) was used. The following measurement conditions are used: column: DB-1 (15 m, diameter: 0.25 mm, membrane thickness: 0.1 μm); injection temperature: 280° C.; column temperature: initial temperature of 40° C., hold for 5 min, heated to 340° C. at the heating rate of 20° C./min, and hold at the same temperature; mass spectrometric unit: 5975MSD; MS detection mode: EI^+; quadrupole temperature: 150° C.; ion source temperature: 300° C.; mass scanning range: m/z 33-700; and calibration: PFTBA.
Ionic liquids obtained from Examples 2, 28, and 29 and Comparative Examples 16 and 17 were subjected to a TG measurement using EXSTAR 6000 (Seiko Instruments Inc.) (Examples 30 and 31, and Comparative Examples 18 and 19). Z-DOL was also subjected to the TG measurement (Comparative Example 20). Weight loss was measured while purging air in a temperature range of 30° C. to 600° C. at a heating rate of 10° C./min.
The TG/DTA measurement was performed in a temperature range of 30° C. to 600° C. at a heating rate of 10° C./min while introducing air at a flow rate of 200 mL/min using EXSTAR 6000 (manufactured by Seiko Instruments Inc.). As a gas chromatography mass spectrometer, 6890/5975 MSD (manufactured by Agilent Technologies, Inc.) was used. The following measurement conditions were used: column: DB-1 (15 m, diameter: 0.25 mm, membrane thickness: 0.1 μm); injection temperature: 280° C.; column temperature: initial temperature of 40° C., hold for 5 min, heated to 340° C. at the heating rate of 20° C./min, and hold at the same temperature; mass spectrometric unit: 5975MSD; MS detection mode: EI^+; quadrupole temperature: 150° C.; ion source temperature: 300° C.; mass scanning range: m/z 33-700; and calibration: PFTBA.

[2] = acid dissociation constant (pKa) in acetonitrile; type: physicochemical
Text: […]. Note that, the pKa values in acetonitrile is described in, for example, Blackwell Scientific Publications, Oxford, 1990, and J. Org. Chem. 2011, Vol. 76, pp. 391-395.
Although the acid dissociation constant in acetonitrile is not described herein because it is described in J. Org. Chem. 1998, 63, p. 7868 or J. Org. Chem. 1997, 62, p. 8479, it can be obtained by dissolving an acid in acetonitrile, titrating the resultant with a base, and measuring a spectrum by means of a UV-vis spectrometer.

[3] = cited from earlier work

| SMILES | pKa of Bronsted acid ([1]; in water) | 10% weight loss temperature (TG/DTA thermal analysis) | ΔpKa [2] | nature of the weight loss in TG/DTA (TG/DTA thermal analysis) | other results |
| --- | --- | --- | --- | --- | --- |
| CCCCCCCCCCCCCCCCCCN.O=C(O)C(F)(F)F [Comparative ionic liquid 1, reference compound] | 0.5 |  |  |  |  |
| CCCCCCCCCCCCCCCCCCN.O=C(O)C(F)(F)C(F)(F)C(F)(F)C(F)(F)C(F)(F)C(F)(F)C(F)(F)F [Comparative ionic liquid 2, reference compound] |  |  |  |  | pKa of Bronsted acid [1]: 2.5 |
| CCCCCCCCCCCCCCCCCC(=O)O.CCCCCCCCCCCCCCCCCCN [Comparative ionic liquid 3, reference compound] | 5.0 |  |  |  |  |
| CCCCCCCCCCCCCCCCCCN.O=C(O)C(F)(F)C(F)(F)C(F)(F)C(F)(F)C(F)(F)C(F)(F)C(F)(F)F [Comparative ionic liquid 6, reference compound] |  | 205 °C |  |  | pKa of Bronsted base ([1]; in water): 10.7; pKa of Bronsted acid ([1]; in water, listed as Comparative Example 16): 3.8 |
| CCCCCCCCCCCCCCCCCCN.OCC(F)(F)C(F)(F)C(F)(F)C(F)(F)C(F)(F)C(F)(F)C(F)(F)F [Comparative ionic liquid 7, reference compound] | 7-9 | 62 °C |  |  | pKa of Bronsted base ([1]; in water): 10.7; ΔpKa (pKa value of Bronsted base minus pKa value of Bronsted acid) ([1]; in water): ≤ 4; ΔpKa (pKa value of Bronsted base minus pKa value of Bronsted acid) ([1]; in water, listed as Comparative Example 17): 1.7-3.7 |
| C1CCC2=NCCCN2CC1.O=S(=O)(O)C(F)(F)C(F)(F)C(F)(F)C(F)(F)C(F)(F)C(F)(F)C(F)(F)C(F)(F)F [Comparative ionic liquid 8, DBU pentadecafluorooctane sulfonic acid salt, reference compound] |  | 393 °C | 23.6 | exothermic | Exothermic peak temperature in DTA measurement (TG/DTA thermal analysis): 432 °C |
| C1CN=C2NCCCN2C1.O=S(=O)(O)C(F)(F)C(F)(F)C(F)(F)C(F)(F)C(F)(F)C(F)(F)C(F)(F)F [Comparative ionic liquid 9, TBD pentadecafluoro sulfonic acid salt, reference compound] |  | 371 °C | 24.8 | exothermic | Exothermic peak temperature in DTA measurement (TG/DTA thermal analysis): 425 °C |
| C1CCC2=NCCCN2CC1 [DBU, 1,8-diazabicyclo(5,4,0)-undecene-7] |  |  |  |  | pKa value ([3]; in water, cyclic amidine base): 12.5 |
| CCCCCCCCCCCCCCCCCCN.O=S(=O)(NS(=O)(=O)C(F)(F)F)C(F)(F)F [Ionic liquid 1, n-octadecylamine-bistrifluoromethane sulfonylimide salt] |  | 329 °C | 17.9 | exothermic |  |
| CCCCCCCCCCCCCCCCCCN.O=S(=O)(O)O [Ionic liquid 3] | −3 |  |  |  |  |
| CCCCCCCCCCCCCCCCCCN.CS(=O)(=O)O [Ionic liquid 4] | −2 |  |  |  |  |
| CCCCCCCCCCCCCCCCCCN.O=S(=O)(O)C(F)(F)C(F)(F)C(F)(F)C(F)(F)C(F)(F)C(F)(F)C(F)(F)C(F)(F)F [Ionic liquid 10] | −3.3 | 327 °C |  |  | pKa of Bronsted base ([1]; in water): 10.7 |
| CCCCCCCCCCCCCCCC1CCCCN2CCCN=C12.O=S(=O)(O)C(F)(F)C(F)(F)C(F)(F)C(F)(F)C(F)(F)C(F)(F)C(F)(F)C(F)(F)F [Ionic liquid 11] | −3.3 | 372 °C |  |  | pKa of Bronsted base ([1]; in water): 12.5; increase of 10% weight loss temperature (TG/DTA thermal analysis; DBU derivative instead of stearylamine as Bronsted base): 45 °C; 10% weight loss temperature higher than that of Z-DOL (TG/DTA thermal analysis; difference to Z-DOL): ≥ 200 °C |
| CCCCCCCCCCCCCCCCCCN.O=S(=O)(NS(=O)(=O)C(F)(F)C(F)(F)C(F)(F)C(F)(F)F)C(F)(F)C(F)(F)C(F)(F)C(F)(F)F [Ionic liquid 13, n-octadecylamine-bisnonafluorobutane sulfonylimide salt] |  | 331 °C | 18.3 | exothermic |  |
| CCCCCCCCCCCCCCCCCCN.O=S1(=O)NS(=O)(=O)C(F)(F)C(F)(F)C1(F)F [Ionic liquid 14, n-octadecylamine-cyclo-hexafluoropropane-1,3-bis(sulfonyl)imide salt] |  | 347 °C | 19.2 | exothermic | Exothermic peak temperature in DTA measurement (TG/DTA thermal analysis): 417 °C |
| CCCCCCCCCCCCCCCCCCC1CCCCN2CCCN=C12.O=S(=O)(O)C(F)(F)C(F)(F)C(F)(F)C(F)(F)C(F)(F)C(F)(F)C(F)(F)C(F)(F)F (stereo not drawn) [Ionic liquid 15, 6-n-octadecyl-1,8-diazabicyclo[5.4.0]-7-undecene (C18-DBU) pentadecafluorooctane sulfonic acid salt] |  | 384 °C | 23.6 | exothermic |  |
| CCCCCCCCCCCCCCCCCCC1CCCCN2CCCN=C12.O=S1(=O)NS(=O)(=O)C(F)(F)C(F)(F)C1(F)F (stereo not drawn) [Ionic liquid 16, C18-DBU cyclo-hexafluoropropane-1,3-bis(sulfonyl)imide salt] |  | 386 °C | 25.2 | exothermic | Exothermic peak temperature in DTA measurement (TG/DTA thermal analysis): 474 °C |
| CCCCCCCCCCCCCCCCCCN1CCCN2CCCN=C12.O=S(=O)(O)C(F)(F)C(F)(F)C(F)(F)C(F)(F)C(F)(F)C(F)(F)C(F)(F)C(F)(F)F [Ionic liquid 17, 7-n-octadecyl-1,5,7-triazabicyclo[4.4.0]-5-decene (C18-TBD) pentadecafluorooctane sulfonic acid salt] |  | 381 °C | 24.8 | exothermic |  |
| CCCCCCCCCCCCCCCCCCN1CCCN2CCCN=C12.O=S1(=O)NS(=O)(=O)C(F)(F)C(F)(F)C1(F)F [Ionic liquid 18, C18-TBD cyclo-hexafluoropropane-1,3-bis(sulfonyl)imide salt] |  | 380 °C | 26.4 | exothermic |  |
| c1c[nH]cn1 [imidazole] |  |  |  |  | pKa value ([3]; solvent not stated): 14 |
| CCCCCCCCCCCCCCCCCCN [octadecylamine] |  |  |  |  | pKa ([1]; water): 10.7 |
| O=C(O)C(F)(F)C(F)(F)C(F)(F)C(F)(F)C(F)(F)C(F)(F)C(F)(F)F [perfluorooctanoic acid] |  |  |  |  | pKa [1]: 2.5 |
| CCCCCCCCCCCCCCCCCC(=O)O [stearic acid] |  |  |  |  | pKa ([1]; water): 5 |
